We go through five compounds from ChEMBL document CHEMBL5465560, “Selectivity Literature for EUbOPEN Chemogenomic Library” (2024).

The target in one assay is Activated CDC42 kinase 1 (Homo sapiens, UniProt Q07912). The assay can be described thus: Selectivity interaction (KinomeScan (DiscoverX)) EUB0000595a TNK2. As to conditions: at 10 µM.
Assay [1] has as its target T1, Ephrin type-A receptor 8 (Homo sapiens) (UniProt P29322).
T1 sequence (whole entry): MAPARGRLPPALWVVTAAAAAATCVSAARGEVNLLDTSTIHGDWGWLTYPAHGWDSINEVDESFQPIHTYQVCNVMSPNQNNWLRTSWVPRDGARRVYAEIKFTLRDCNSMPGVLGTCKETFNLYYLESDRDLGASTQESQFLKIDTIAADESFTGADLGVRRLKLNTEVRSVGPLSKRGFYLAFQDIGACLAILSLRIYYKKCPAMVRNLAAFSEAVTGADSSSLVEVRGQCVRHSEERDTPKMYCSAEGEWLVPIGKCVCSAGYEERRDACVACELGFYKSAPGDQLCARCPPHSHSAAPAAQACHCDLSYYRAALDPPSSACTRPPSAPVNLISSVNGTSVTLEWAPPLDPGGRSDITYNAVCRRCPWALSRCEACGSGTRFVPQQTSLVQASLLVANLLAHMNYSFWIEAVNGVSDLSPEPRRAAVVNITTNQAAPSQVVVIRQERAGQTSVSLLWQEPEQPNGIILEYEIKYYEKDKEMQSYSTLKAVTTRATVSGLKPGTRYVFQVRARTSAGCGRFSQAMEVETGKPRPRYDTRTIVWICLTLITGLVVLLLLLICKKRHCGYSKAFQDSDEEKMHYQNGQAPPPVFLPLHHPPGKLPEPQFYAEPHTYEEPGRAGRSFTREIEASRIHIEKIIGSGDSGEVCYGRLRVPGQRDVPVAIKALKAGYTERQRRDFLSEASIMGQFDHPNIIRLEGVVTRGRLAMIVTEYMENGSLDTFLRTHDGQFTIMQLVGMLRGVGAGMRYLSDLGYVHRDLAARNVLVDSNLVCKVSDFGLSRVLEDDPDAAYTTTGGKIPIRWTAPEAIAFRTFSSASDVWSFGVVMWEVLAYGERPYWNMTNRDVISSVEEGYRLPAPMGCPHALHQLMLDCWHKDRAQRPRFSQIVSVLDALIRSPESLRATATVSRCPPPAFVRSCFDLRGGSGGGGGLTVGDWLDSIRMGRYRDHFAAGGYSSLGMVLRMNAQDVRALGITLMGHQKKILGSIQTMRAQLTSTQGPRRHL
The assay can be described thus: Selectivity interaction (KinomeScan (DiscoverX)) EUB0000595a EPHA8. As to conditions: at 10 µM.

Assay [2] deals with T2, Serine/threonine-protein kinase D2 (Homo sapiens) (UniProt Q9BZL6).
T2 sequence (whole entry): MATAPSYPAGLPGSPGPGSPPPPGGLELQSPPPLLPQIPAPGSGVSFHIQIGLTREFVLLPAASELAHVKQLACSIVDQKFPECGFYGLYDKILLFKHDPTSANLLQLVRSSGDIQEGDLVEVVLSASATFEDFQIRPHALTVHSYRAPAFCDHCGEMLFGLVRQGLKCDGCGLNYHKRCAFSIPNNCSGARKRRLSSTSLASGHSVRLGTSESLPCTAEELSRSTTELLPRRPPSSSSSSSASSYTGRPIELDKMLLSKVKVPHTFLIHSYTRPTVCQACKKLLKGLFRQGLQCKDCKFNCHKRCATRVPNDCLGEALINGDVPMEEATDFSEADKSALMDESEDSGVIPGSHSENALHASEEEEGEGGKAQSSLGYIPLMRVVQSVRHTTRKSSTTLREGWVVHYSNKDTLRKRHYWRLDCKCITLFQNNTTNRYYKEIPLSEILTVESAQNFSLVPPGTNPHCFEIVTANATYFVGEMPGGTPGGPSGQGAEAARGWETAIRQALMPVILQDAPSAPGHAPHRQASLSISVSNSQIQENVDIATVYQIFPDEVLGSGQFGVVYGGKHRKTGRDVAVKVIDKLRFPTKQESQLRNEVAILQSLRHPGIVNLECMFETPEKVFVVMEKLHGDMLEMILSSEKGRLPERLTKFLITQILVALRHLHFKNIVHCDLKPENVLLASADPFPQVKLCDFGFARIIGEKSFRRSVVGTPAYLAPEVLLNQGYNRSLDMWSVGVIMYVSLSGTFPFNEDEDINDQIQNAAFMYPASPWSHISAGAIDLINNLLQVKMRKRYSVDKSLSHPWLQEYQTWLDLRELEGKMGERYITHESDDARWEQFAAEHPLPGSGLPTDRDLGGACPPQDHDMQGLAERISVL
The assay can be described thus: Selectivity interaction (ActivX KiNativ screen (ex vivo kinase selectivity in human PBMCs)) EUB0001619a PRKD2. It counts as cell-based. As to conditions: PBMC, at 1 µM.

The target in assay [3] is T3, Testis-specific serine/threonine-protein kinase 1 (Homo sapiens) (UniProt Q9BXA7).
T3 sequence (whole entry): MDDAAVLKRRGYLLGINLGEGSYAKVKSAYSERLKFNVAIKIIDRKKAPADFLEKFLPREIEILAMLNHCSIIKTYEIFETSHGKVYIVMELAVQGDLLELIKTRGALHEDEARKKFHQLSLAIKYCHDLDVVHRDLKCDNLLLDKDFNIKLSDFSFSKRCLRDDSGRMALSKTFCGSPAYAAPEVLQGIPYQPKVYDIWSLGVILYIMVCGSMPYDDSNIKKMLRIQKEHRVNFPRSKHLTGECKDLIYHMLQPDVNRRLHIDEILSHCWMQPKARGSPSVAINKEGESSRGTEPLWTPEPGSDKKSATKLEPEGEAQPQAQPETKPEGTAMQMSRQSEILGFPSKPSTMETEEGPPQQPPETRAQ
As to conditions: at 10 µM.

Assay [4] has as its target Serine/threonine-protein kinase 24 (Homo sapiens) (UniProt Q9Y6E0). The assay can be described thus: Selectivity interaction (ActivX KiNativ screen (kinase selectivity in THP-1 cell lysates)) EUB0000639a STK24. The class given is subcellular. As to conditions: lysate, at 1 µM.
Assay [5] concerns the target T4, Dual specificity mitogen-activated protein kinase kinase 3 (Homo sapiens) (UniProt P46734).
T4 sequence (whole entry): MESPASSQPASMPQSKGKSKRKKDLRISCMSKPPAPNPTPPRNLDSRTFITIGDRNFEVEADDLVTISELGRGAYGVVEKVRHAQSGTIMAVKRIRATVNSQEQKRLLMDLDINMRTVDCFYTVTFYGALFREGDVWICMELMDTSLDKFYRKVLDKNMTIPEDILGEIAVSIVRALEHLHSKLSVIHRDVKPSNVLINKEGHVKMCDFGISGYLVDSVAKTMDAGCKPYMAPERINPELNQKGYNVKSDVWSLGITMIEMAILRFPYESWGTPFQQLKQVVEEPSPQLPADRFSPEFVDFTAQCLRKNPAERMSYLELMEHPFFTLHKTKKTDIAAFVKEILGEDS
Put plainly: Selectivity interaction (KinomeScan (DiscoverX)) EUB0001049a MAP2K3. As to conditions: at 1 µM.

Chain of Activated CDC42 kinase 1 (Q07912 whole entry, looked up): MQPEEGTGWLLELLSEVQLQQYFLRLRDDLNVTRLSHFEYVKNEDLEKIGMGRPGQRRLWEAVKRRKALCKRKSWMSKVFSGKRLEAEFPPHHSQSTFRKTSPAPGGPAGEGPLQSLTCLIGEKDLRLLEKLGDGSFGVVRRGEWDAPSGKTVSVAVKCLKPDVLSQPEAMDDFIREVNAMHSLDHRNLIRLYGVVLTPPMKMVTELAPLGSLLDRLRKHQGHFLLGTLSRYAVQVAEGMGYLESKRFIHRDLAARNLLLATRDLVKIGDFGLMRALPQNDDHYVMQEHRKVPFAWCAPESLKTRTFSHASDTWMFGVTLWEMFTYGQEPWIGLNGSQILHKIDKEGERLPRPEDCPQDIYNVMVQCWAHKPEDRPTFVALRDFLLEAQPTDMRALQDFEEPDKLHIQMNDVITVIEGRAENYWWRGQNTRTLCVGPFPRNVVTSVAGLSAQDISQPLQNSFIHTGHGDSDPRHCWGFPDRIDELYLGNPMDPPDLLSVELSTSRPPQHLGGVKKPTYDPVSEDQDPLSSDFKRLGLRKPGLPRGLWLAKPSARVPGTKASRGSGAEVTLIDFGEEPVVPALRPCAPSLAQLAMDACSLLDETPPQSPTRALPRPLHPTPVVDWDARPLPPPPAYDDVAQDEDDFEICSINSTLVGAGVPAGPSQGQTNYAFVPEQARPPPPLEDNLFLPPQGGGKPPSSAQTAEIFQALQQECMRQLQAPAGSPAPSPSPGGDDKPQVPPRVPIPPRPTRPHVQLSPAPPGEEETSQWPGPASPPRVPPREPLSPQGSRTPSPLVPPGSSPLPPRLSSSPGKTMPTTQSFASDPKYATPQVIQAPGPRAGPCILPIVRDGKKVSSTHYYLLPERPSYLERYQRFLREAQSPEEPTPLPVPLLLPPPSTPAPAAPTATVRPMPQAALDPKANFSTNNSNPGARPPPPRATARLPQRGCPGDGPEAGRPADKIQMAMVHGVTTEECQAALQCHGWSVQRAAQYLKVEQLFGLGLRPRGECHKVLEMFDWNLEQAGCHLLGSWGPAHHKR
Chain of Serine/threonine-protein kinase 24 (Homo sapiens) (Q9Y6E0 whole entry, looked up): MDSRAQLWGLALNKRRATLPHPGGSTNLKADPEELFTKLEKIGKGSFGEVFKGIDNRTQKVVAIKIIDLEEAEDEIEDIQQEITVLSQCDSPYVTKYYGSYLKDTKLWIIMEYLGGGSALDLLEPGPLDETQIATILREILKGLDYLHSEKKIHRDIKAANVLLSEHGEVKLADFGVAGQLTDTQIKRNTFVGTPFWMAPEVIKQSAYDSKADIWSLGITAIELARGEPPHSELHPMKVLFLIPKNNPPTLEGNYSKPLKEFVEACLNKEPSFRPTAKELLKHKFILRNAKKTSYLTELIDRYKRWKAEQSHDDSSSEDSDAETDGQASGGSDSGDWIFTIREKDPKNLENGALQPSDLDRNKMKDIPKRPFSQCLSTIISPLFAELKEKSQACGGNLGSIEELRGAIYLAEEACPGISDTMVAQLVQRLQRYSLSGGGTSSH

As for `COCC(=O)NC/C=C/c1ccc2ncnc(Nc3ccc(Oc4ccc(C)nc4)c(C)c3)c2c1` [CP-724714], the % of control came to 78% at Activated CDC42 kinase 1 and 98% in assay [1].
`N#Cc1cccc(-c2c[nH]c3ncnc(N4CCOCC4)c23)c1` yielded a % of inhibition in assay [2] of 9%.
On to `CCN(CC)CCCCNc1ncc2cc(-c3cc(OC)cc(OC)c3)c(NC(=O)NC(C)(C)C)nc2n1`, for which the % of control in assay [3] was 100%.
In assay [4], `CC[C@@H]1[C@H](F)C(=O)N[C@@H]1COc1nccc2cc(C(N)=O)c(OC)cc12` [ZIMLOVISERTIB] showed a % of inhibition of 5.9%.
`COc1cc(Nc2nc(C)cc(-c3cnn4nc(OC)ccc34)n2)cc(C(F)(F)F)c1`: the % of control in assay [5] stood at 86%.
